This is an account of results in patent US20090170886A1 (Pfizer Inc, priority 2005, published 2009).

This test has as its target T1, androgen receptor in MDA-MB453-MMTV clone 54-19 cells (Homo sapiens, UniProt P10275).
T1 sequence (P10275 1-920 Q868H): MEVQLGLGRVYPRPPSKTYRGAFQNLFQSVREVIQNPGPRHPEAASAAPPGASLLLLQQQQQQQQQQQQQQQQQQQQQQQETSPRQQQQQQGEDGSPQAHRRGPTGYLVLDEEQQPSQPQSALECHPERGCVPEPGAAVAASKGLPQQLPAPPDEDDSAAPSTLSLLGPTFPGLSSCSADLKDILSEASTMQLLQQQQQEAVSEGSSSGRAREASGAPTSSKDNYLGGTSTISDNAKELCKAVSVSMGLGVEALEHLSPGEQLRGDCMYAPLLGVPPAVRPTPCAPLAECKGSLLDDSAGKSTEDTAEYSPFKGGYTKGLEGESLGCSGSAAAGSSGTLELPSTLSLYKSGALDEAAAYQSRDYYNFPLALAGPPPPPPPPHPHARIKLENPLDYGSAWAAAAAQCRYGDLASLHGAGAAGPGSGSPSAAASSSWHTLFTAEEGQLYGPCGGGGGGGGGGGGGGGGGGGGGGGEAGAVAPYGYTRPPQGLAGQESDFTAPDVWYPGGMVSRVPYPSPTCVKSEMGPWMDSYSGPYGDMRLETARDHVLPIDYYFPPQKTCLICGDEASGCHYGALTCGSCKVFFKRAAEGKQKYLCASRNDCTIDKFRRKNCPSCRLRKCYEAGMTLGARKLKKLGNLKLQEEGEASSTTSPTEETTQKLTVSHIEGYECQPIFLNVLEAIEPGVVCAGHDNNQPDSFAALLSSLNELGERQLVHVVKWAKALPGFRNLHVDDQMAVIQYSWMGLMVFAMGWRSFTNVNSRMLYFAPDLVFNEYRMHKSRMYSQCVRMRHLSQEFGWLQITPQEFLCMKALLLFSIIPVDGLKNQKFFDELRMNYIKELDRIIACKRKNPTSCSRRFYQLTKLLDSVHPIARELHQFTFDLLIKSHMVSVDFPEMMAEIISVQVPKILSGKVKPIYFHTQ
In words: AR Antagonist Cell Assay (MMTV-luciferase reporter, DHT-induced). The format is cell-based. As to conditions: MDA-MB453-MMTV clone 54-19, 100 pM DHT, 17 hr; mean of multiple tests. In a few lines: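 MDA-MB453 cells stably carrying an ARE-containing MMTV-luciferase reporter, in phenol red-free medium with 1% charcoal-treated serum, preincubated 30 min with compound (0.32-1000 nM), then stimulated with 100 pM DHT for 17 h at 37 °C. Luminescence read; percent inhibition of DHT fold induction.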

`CC(Oc1ccc(C#N)c(C(F)(F)F)c1)c1ccccc1` (racemic) [Example 1, 4-(1-Phenyl-ethoxy)-2-trifluoromethyl-benzonitrile] had an IC50 of 90 nM. `CCCC(Oc1ccc(C#N)c(C(F)(F)F)c1)c1cccc(O)c1` (racemic) [Example 14, 4-[1-(3-Hydroxyphenyl)butoxy]-2-(trifluoromethyl)benzonitrile] returned an IC50 of 36 nM.

`CCCC(Oc1ccc(C#N)c(C(F)(F)F)c1)c1cccc(O)c1` (single isomer, unassigned; (+)) [Example 15, (+)4-[1-(3-Hydroxyphenyl)butoxy]-2-(trifluoromethyl)benzonitrile] registered an IC50 of 102 nM.

`CC(C)CC(Oc1ccc(C#N)c(C(F)(F)F)c1)c1cccc(O)c1` (single isomer, unassigned; (+)) [Example 21, (+)4-[1-(3-Hydroxyphenyl)-3-methylbutoxy]-2-(trifluoromethyl)benzonitrile]: the IC50 was found to be 79 nM. The figure for `CC(Oc1ccc(C#N)c(C(F)(F)F)c1)c1cncc(O)c1` (single isomer, unassigned; (+)) [Example 74, (+)4-[1-(5-Hydroxypyridin-3-yl)ethoxy]-2-(trifluoromethyl)benzonitrile] is 111 nM. As for `CC(Oc1ccc(C#N)c(C(F)(F)F)c1)c1cccc(O)c1` (single isomer, unassigned; (-)) [Example 9, (−)-4-[1-(3-Hydroxyphenyl)ethoxy]-2-(trifluoromethyl)benzonitrile], the IC50 turned out to be 13 nM.

On to `C=CCC(Oc1ccc(C#N)c(C(F)(F)F)c1)c1cccc(O)c1` (single isomer, unassigned; (-)) [Example 19, (−)4-{[1-(3-Hydroxyphenyl)but-3-enyl]oxy}-2-(trifluoromethyl)benzonitrile], for which half-maximal inhibition (IC50) was put at 34 nM. The figure for `N#Cc1ccc(OCc2cccc(O)c2)cc1C(F)(F)F` [Example 6, 4-[(3-Hydroxybenzyl)oxy]-2-(trifluoromethyl)benzonitrile] is 6 nM. In the case of `CCC(Oc1ccc(C#N)c(C(F)(F)F)c1)c1ccccn1` (stereo not drawn) [Example 79, 4-(1-Pyridin^−2-yl-propoxy)-2-trifluoromethyl-benzonitrile], inhibition was half-maximal at 27.1 nM (IC50). Next, `COc1cccc(C(C)Oc2ccc(C#N)c(C(F)(F)F)c2)n1` (stereo not drawn) [Example 80, 4-[1-(6-Methoxy-pyridin-2-yl)-ethoxy]-2-trifluoromethyl-benzonitrile]: 152 nM; `CC(C)CC(Oc1ccc(C#N)c(C(F)(F)F)c1)c1cccnc1` (stereo not drawn) [Example 88, 4-(3-Methyl-1-pyridin-3-yl-butoxy)-2-trifluoromethyl-benzonitrile]: 50 nM; `Cc1ccc(C(CC(C)C)Oc2ccc(C#N)c(C(F)(F)F)c2)cn1` (stereo not drawn) [Example 89, 4-[3-Methyl-1-(6-methyl-pyridin-3-yl)-butoxy]-2-trifluoromethyl-benzonitrile]: 56 nM.
